Drawing on ChEMBL document CHEMBL5649166, “RIP3 induces apoptosis independent of pronecrotic kinase activity” (Mol Cell, 2014), this text covers residual activity for three compounds.

Test [1] addresses Tyrosine-protein kinase JAK2 (Homo sapiens) (UniProt O60674). Kind of test: Inhibition of human JAK2 using poly[Glu:Tyr] (4:1) as substrate at 1 uM in presence of 32P-ATP by Hotspot assay relative to control; values are per cent of control.
For test [2], the target named is Casein kinase I isoform gamma-2 (Homo sapiens) (UniProt P78368). Kind of test: Inhibition of human CK1g2 using KRRRAL[pS]VASLPGL as substrate at 1 uM in presence of 32P-ATP by Hotspot assay relative to control; values are per cent of control.
Sequence of Casein kinase I isoform gamma-2 (Homo sapiens) (P78368 whole entry, looked up, canonical isoform): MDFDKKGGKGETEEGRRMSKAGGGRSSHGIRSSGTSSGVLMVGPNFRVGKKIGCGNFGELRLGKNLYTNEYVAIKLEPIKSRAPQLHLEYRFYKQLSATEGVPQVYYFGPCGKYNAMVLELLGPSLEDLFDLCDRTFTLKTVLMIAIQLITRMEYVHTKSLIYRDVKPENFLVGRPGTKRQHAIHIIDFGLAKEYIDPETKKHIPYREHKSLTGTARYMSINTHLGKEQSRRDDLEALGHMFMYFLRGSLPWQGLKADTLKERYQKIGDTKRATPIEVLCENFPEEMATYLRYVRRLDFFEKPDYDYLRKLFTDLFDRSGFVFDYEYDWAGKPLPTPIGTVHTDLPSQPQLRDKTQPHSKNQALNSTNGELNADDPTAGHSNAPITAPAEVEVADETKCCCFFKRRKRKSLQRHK
The target in test [3] is Aurora kinase B (Homo sapiens) (UniProt Q96GD4). Kind of test: Inhibition of human Aurora B using H-LRRASLG as substrate at 1 uM in presence of 32P-ATP by Hotspot assay relative to control; values are per cent of control.
Test [4] concerns the target Proto-oncogene tyrosine-protein kinase ROS (Homo sapiens) (UniProt P08922). Kind of test: Inhibition of human ROS/ROS1 using KKKSPGEYVNIEFG as substrate at 1 uM in presence of 32P-ATP by Hotspot assay relative to control; values are per cent of control.
Test [5] deals with T1, cGMP-dependent protein kinase 2 (Homo sapiens) (UniProt Q13237).
T1 sequence (whole entry): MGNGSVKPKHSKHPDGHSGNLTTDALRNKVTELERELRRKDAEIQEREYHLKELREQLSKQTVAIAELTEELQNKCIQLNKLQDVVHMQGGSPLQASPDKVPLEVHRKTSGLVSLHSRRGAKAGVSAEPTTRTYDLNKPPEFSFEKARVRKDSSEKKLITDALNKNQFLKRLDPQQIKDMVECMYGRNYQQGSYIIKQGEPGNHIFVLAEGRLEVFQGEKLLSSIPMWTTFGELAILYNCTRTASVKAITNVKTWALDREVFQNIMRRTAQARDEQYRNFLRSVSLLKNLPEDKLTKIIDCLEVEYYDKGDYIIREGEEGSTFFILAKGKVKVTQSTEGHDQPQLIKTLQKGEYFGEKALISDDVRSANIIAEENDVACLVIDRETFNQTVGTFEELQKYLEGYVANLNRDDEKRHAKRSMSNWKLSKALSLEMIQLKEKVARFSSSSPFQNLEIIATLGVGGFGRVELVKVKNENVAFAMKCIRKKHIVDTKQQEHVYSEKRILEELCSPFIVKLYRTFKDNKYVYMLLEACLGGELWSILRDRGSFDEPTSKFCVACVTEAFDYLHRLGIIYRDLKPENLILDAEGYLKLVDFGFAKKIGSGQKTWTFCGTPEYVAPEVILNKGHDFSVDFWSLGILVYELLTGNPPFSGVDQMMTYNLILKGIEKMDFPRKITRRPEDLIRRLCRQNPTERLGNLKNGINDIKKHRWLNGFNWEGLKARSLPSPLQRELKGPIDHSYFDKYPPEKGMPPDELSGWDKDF
In words: Inhibition of human PKG2/PRKG2 using LRRASLG as substrate at 1 uM in presence of 32P-ATP by Hotspot assay relative to control; values are per cent of control.

Test [6] addresses Cyclin-dependent kinase 1/cyclin B1 (Homo sapiens) (UniProt P06493+P14635). In words: Inhibition of human CDK1/cyclin B using RB Protein as substrate at 1 uM in presence of 32P-ATP by Hotspot assay relative to control; values are per cent of control.
Test [7] deals with Phosphorylase b kinase gamma catalytic chain, skeletal muscle/heart isoform (Homo sapiens) (UniProt Q16816). Kind of test: Inhibition of human PHKg1 using KKLNRTLSFAEPG as substrate at 1 uM in presence of 32P-ATP by Hotspot assay relative to control; values are per cent of control.
Sequence of Phosphorylase b kinase gamma catalytic chain, skeletal muscle/heart isoform (Homo sapiens) (Q16816 whole entry, looked up, canonical isoform): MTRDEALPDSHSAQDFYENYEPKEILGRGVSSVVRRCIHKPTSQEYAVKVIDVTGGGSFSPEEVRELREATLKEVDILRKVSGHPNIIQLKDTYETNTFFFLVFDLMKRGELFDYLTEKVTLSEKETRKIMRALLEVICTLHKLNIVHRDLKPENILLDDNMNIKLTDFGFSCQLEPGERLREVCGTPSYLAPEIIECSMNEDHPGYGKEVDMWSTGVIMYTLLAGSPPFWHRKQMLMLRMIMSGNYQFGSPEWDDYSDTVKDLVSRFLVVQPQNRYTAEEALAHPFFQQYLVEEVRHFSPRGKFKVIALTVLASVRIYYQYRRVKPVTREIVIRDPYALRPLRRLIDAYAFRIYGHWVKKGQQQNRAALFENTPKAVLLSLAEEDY
The target in test [8] is Mitogen-activated protein kinase 10 (Homo sapiens) (UniProt P53779). Kind of test: Inhibition of human JNK3 using ATF2 as substrate at 1 uM in presence of 32P-ATP by Hotspot assay relative to control; values are per cent of control.
Sequence of Mitogen-activated protein kinase 10 (Homo sapiens) (P53779 whole entry): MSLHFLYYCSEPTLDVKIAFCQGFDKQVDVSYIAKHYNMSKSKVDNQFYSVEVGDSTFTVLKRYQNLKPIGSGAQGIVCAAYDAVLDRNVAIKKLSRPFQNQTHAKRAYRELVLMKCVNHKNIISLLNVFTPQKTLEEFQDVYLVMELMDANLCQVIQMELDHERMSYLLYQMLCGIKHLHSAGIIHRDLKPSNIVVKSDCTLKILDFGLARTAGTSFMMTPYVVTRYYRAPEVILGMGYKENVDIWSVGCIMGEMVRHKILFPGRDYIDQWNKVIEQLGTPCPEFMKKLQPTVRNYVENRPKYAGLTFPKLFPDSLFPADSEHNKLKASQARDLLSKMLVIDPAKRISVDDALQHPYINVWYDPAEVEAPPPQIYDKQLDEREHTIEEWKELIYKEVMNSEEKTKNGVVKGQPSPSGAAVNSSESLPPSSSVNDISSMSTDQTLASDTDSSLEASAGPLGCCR
The target of test [9] is T2, Serine/threonine-protein kinase Sgk3 (Homo sapiens) (UniProt Q96BR1).
T2 sequence (whole entry): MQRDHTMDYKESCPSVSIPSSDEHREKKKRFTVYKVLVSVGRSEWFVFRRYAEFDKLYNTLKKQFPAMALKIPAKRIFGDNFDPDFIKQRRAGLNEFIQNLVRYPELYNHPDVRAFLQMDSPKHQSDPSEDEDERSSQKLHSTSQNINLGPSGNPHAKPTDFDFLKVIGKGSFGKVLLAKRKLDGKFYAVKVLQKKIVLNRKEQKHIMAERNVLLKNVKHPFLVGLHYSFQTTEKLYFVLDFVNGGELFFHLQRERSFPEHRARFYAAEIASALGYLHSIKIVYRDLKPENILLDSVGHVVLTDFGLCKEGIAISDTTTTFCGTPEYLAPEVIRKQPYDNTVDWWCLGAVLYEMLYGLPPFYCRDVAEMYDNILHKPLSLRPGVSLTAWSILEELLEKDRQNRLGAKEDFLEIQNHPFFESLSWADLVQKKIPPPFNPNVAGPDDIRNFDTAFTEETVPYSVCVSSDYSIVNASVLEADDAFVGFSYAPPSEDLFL
In words: Inhibition of human SGK3/SGKL using KGSGSGRPRTSSFAEG as substrate at 1 uM in presence of 32P-ATP by Hotspot assay relative to control; values are per cent of control.

Test [10] deals with Serine/threonine-protein kinase PAK 5 (Homo sapiens) (UniProt Q9P286). Kind of test: Residual activity of human PAK5 using RRRLSFAEPG as substrate at 1 uM in presence of 32P-ATP by Hotspot assay relative to control.
Test [11] has as its target PAS domain-containing serine/threonine-protein kinase (Homo sapiens) (UniProt Q96RG2). Kind of test: Inhibition of human PASK using KKLNRTLSFAEPG as substrate at 1 uM in presence of 32P-ATP by Hotspot assay relative to control; values are per cent of control.
The target of test [12] is Serine/threonine-protein kinase Nek7 (Homo sapiens) (UniProt Q8TDX7). Kind of test: Inhibition of human NEK7 using casein as substrate at 1 uM in presence of 32P-ATP by Hotspot assay relative to control; values are per cent of control.
Sequence of Serine/threonine-protein kinase Nek7 (Homo sapiens) (Q8TDX7 whole entry, looked up): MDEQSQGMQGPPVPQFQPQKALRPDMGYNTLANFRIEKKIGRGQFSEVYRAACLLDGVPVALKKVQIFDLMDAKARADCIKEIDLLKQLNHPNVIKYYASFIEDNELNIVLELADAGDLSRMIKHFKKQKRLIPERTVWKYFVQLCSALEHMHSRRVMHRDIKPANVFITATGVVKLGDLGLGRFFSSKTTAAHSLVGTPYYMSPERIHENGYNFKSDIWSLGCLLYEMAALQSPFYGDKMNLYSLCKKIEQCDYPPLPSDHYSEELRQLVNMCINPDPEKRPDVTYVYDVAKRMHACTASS
In test [13] the target is Proto-oncogene tyrosine-protein kinase Src (Homo sapiens) (UniProt P12931). Kind of test: Inhibition of human c-Src using poly[Glu:Tyr] (4:1) as substrate at 1 uM in presence of 32P-ATP by Hotspot assay relative to control; values are per cent of control.

Sequence of Tyrosine-protein kinase JAK2 (Homo sapiens) (O60674 whole entry, canonical isoform): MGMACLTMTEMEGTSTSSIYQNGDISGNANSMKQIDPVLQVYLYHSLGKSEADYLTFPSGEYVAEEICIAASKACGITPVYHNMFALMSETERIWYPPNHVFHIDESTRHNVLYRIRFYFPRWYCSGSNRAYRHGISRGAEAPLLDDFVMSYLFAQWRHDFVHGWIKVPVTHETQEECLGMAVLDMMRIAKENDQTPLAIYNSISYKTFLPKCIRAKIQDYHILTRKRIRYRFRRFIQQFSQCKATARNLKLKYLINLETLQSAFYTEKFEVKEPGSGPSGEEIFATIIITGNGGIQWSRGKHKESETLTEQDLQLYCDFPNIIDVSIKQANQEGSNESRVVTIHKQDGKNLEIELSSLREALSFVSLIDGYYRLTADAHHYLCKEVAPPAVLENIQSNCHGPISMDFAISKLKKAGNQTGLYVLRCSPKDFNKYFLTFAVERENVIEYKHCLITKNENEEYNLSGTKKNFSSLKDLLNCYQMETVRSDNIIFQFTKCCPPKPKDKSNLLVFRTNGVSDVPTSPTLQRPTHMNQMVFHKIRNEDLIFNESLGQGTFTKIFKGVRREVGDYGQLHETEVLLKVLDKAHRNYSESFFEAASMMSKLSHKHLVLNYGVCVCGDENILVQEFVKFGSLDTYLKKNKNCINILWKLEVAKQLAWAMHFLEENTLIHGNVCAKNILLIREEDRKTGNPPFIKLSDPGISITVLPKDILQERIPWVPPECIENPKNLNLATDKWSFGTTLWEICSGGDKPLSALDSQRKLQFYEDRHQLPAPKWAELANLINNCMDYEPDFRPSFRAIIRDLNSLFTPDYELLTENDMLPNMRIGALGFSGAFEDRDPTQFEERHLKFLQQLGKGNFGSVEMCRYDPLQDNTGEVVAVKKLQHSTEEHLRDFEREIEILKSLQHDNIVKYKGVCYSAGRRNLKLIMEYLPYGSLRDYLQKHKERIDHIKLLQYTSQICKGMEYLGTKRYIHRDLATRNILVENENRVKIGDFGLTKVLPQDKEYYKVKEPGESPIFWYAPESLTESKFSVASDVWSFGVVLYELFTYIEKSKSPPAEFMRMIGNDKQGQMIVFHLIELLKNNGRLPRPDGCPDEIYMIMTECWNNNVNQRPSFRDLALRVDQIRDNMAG
Sequence of Proto-oncogene tyrosine-protein kinase ROS (Homo sapiens) (P08922 whole entry): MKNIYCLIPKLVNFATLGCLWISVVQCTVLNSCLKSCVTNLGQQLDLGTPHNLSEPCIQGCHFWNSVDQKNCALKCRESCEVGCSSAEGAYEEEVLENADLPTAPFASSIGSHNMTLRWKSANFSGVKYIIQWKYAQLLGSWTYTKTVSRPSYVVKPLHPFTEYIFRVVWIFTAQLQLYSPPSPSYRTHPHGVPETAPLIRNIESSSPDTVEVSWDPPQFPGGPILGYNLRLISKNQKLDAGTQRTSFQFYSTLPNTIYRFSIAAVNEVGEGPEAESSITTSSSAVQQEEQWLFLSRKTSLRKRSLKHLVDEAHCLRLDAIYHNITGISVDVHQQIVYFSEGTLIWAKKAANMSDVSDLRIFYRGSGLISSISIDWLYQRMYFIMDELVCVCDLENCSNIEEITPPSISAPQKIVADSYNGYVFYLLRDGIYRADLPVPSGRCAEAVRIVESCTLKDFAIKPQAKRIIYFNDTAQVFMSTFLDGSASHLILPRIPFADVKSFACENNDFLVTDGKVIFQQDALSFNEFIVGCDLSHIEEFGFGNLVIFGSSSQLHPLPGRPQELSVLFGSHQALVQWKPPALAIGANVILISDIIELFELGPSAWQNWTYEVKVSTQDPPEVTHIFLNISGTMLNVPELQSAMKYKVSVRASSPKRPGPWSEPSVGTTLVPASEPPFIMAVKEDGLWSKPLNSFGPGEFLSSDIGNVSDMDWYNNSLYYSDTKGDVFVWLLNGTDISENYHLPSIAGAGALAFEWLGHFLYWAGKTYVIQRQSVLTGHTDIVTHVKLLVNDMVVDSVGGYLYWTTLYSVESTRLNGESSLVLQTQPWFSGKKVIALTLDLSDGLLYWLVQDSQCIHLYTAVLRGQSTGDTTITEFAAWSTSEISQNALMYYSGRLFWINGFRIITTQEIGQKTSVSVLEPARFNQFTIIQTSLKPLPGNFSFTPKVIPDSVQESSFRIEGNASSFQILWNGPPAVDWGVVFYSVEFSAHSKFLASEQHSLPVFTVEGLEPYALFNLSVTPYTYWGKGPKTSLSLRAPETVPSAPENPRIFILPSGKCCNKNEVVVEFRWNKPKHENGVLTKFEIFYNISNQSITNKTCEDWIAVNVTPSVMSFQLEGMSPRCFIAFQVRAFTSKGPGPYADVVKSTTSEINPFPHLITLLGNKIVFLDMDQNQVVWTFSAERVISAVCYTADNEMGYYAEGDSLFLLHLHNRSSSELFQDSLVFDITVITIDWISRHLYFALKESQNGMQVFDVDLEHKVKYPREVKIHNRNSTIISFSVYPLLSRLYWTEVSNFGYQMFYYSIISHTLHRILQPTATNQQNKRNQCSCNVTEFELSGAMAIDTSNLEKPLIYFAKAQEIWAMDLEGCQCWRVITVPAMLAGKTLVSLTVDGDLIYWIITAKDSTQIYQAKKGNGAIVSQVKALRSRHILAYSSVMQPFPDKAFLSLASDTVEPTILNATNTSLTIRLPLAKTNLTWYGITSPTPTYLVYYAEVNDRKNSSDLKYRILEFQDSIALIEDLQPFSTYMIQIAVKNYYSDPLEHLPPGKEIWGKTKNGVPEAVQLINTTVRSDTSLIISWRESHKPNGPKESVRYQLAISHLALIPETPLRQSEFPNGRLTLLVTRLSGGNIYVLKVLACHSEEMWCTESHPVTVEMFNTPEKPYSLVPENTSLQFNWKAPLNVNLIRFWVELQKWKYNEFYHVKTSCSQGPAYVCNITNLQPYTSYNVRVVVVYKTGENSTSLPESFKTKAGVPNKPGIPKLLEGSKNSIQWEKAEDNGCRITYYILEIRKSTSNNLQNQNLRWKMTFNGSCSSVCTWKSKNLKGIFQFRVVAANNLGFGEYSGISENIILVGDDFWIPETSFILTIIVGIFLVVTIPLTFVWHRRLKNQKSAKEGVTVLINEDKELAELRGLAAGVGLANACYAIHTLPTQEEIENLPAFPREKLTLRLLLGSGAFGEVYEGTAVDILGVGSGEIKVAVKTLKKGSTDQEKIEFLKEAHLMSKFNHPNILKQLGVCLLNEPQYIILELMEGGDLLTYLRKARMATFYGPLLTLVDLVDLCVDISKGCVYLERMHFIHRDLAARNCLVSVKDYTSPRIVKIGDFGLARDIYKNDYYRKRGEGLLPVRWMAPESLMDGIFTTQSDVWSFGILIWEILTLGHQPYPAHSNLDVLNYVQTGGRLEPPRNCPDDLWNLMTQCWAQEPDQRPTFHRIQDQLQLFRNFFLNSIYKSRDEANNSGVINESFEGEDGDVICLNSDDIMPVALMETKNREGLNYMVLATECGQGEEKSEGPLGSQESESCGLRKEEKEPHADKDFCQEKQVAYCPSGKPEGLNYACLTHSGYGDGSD

On to `Cc1cc(-c2cnc(N)c3c(-c4ccc5scnc5c4)csc23)n(C)n1`, for which the residual activity in test [1] was 89.8%; in test [2], 79.1%; in test [3] it was 89.8%; in test [4], 78.1%; in [5], 70.1%; in [6], 95%. For the same compound, the residual activity came out at 96.8% in [7]; 85.9% in test [8]; 97.9% in test [9]; 99.5% in test [10]; 93.1% in [11]; 94.9% in [12]. In addition, the residual activity in [13] came out at 37.1%.
For the compound `CC(C)S(=O)(=O)c1ccc2nccc(Nc3ccc4scnc4c3)c2c1`, the residual activity in [1] is 102%; in test [2], 100%; in test [3] it was 97.5%; in test [4] it was 89.6%; in [5], 94.6%; in test [6], 101%. The residual activity in [7] stood at 94.8%; in [8] it was 106%; in test [9], 106%; in test [10], 105%; in test [11] it was 96.5%; in test [12] it was 95.6%. Moreover, the residual activity in [13] was determined as 28.3%.
In the case of `CNC(=O)c1ccc2c(c1)ncn2-c1ccc(CC(=O)OC(C)(C)C)cc1`, the residual activity stood at 95.7% in test [1]; 91.8% in test [2]; 82.1% in test [3]; 99% in test [4]; 96.7% in test [5]; 98.9% in test [6]. For the same compound, the residual activity was 101% in test [7]; 104% in test [8]; 96.7% in test [9]; 95.7% in test [10]; 99.8% in [11]; 91.5% in test [12]. For the same compound, the residual activity in test [13] was 80%.
